Experimental data taken from patent US4602006A, “Ynenolactone protease inhibitors” (Syntex (U.S.A.) Inc., priority 1984, dated 1986).

Target: T1, Human Leukocyte Elastase (Homo sapiens, UniProt P08246)
T1 construct: fresh human leukocytes were obtained from a healthy donor; from tissue; host or cells: human leukocytes from a healthy donor (homogenized)
T1 sequence (P08246 30-247 limits assumed): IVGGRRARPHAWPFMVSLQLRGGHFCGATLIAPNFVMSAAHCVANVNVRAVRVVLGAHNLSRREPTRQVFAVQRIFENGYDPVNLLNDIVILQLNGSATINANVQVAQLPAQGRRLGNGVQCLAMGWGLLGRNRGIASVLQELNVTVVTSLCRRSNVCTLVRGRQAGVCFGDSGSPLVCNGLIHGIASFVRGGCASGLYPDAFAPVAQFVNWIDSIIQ
Assay: Inactivation of Human Leukocyte Elastase (fluorogenic substrate assay)
Assay type: biochemical

kinact (25° C., pH 7.8, substrate MeOSuc-Ala-Ala-Pro-Val-methylcoumarinamide, read-out: maximum inactivation rate): 0.09 s⁻¹
KI (inactivation) (half-maximal inactivation rate, 25° C., pH 7.8, read-out: inhibitor concentration required for half-maximal rate): 4.1 µM
Structure (SMILES): C#C/C=C1\CC(Cc2ccccc2)C(=O)O1 (stereo not shown) [3-Benzyl-5(E)-(prop-2-ynylidene)tetrahydro-2-furanone]
irreversibility of inactivation (0.24 nanomoles HL elastase + 4 microliters 2 mM inhibitor, 25° C., after 17 minutes chromatographed on Sephadex G-50): irreversibility of this inactivation was shown
mode of enzyme inactivation (inhibitor added after recording the uninhibited rate): inactivated in a time and concentration dependent manner
